Results taken from patent US10807932B2, “Benzosuberene analogues and related compounds with activity as anticancer agents” (Baylor University, priority 2018, dated 2020).

Experiments:
tubulin = experiment: Colchicine binding assay (inhibition of [3H]colchicine binding to tubulin); settings: 1.0 μM tubulin, 5.0 μM [3H]colchicine
Description: Colchicine Binding Assay.
Inhibition of [^3H]colchicine binding to tubulin was measured in 0.1 mL reaction mixtures, each containing 1.0 μM tubulin, 5.0 μM [^3H]colchicine (Perkin-Elmer), 5% (v/v) dimethyl sulfoxide, […], and components that stabilize the colchicine binding activity of tubulin (1.0 M monosodium glutamate [adjusted to pH 6.6 with HCl in a 2.0 M stock solution], 0.5 mg/mL bovine serum albumin, 0.1 M glucose-1-phosphate, 1.0 mM MgCl2, and 1.0 mM GTP). […] Reactions were stopped with 2.0 mL of ice-cold water, with the reaction mixtures being placed on ice. Each diluted sample was poured onto a stack of two DEAE-cellulose filters (GE Biomedical), followed by 3 successive 2 mL aliquots of ice-cold water. A reduced vacuum was used to remove excess water from the filters, which were washed three times with 2 mL water and placed into vials containing 5 mL of Biosafe II scintillation cocktail. Samples were counted 18 h later in a Beckman scintillation counter. Samples with inhibitors were compared to samples with no inhibitor, and percent inhibition was determined, correcting all values for the amount of radiolabel bound to the filters in the absence of tubulin.

[1] = test system: SK-OV-3 (ovarian) cancer cell line; experiment: Sulforhodamine B (SRB) growth inhibition assay, SK-OV-3; type: cell-based, human; settings: 48 h treatment
Text: (§1) Cell Lines and Sulforhodamine B (SRB) Assay.
(§2) The sulforhodamine B (SRB) assay was used to assess growth inhibition of human cancer cells, as previously described. DU-145, SK-OV-3, and NCI-H460 cancer cell lines (obtained from ATCC) were maintained in T75 flasks (Corning) using high glucose DMEM supplemented with 10% fetal bovine serum (Gibco)/1% gentamicin sulfate for a maximum of 15 passages. For these experiments, cells were trypsinized, counted, and plated at 7000-8000 cells/well into 96-well plates (Corning) and incubated for 24 h at 37° C. in a humidified incubator in a 5% CO2 atmosphere. Compounds to be tested were dissolved in DMSO to generate a 10 mg/mL stock solution, and serial dilutions added in media to the plates. Doxorubicin (Sigma-Aldrich) and paclitaxel (Tokyo Chemical) were used as positive controls. After a 48 h treatment, the cells were fixed with trichloroacetic acid (10% final concentration), washed, dried, stained with SRB dye, washed to remove excess dye, and dried. SRB dye was solubilized, and absorbances were measured at wavelength 540 nm and normalized to values at wavelength 630 nm using an automated Biotek plate reader.

[2] = test system: NCI-H460 (lung) cancer cell line; experiment: Sulforhodamine B (SRB) growth inhibition assay, NCI-H460; type: cell-based, human; settings: 48 h treatment
Text: as §1, §2

[3] = test system: DU-145 (prostate) cancer cell line; experiment: Sulforhodamine B (SRB) growth inhibition assay, DU-145; type: cell-based, human; settings: 48 h treatment
Text: as §1, §2

[4] = molecular target: T1, purified bovine brain tubulin (Bos taurus, UniProt P81947+Q6B856); experiment: Inhibition of tubulin polymerization (turbidimetric, cell-free); type: biochemical; settings: for IC50: 10 μM tubulin, extent of polymerization after 20 min at 30° C., read-out: Inhibition of tubulin polymerization IC50 (μM) ± SD; for inhibition of tubulin polymerization (in words): cell-free assay
T1 construct: purified bovine brain tubulin; from tissue; host or cells: bovine brain
T1 sequence (Q6B856 whole entry): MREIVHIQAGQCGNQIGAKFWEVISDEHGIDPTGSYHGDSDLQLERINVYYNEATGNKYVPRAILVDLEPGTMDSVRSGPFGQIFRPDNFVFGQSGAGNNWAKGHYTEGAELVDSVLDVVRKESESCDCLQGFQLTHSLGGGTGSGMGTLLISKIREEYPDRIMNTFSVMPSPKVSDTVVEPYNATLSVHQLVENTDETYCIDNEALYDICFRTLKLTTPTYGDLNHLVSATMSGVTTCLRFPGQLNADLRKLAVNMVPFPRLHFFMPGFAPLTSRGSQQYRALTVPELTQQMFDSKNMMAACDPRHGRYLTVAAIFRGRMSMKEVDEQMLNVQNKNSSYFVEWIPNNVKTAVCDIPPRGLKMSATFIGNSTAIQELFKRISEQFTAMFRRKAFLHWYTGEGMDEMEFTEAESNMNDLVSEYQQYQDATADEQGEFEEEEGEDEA
T1 sequence (P81947 whole entry): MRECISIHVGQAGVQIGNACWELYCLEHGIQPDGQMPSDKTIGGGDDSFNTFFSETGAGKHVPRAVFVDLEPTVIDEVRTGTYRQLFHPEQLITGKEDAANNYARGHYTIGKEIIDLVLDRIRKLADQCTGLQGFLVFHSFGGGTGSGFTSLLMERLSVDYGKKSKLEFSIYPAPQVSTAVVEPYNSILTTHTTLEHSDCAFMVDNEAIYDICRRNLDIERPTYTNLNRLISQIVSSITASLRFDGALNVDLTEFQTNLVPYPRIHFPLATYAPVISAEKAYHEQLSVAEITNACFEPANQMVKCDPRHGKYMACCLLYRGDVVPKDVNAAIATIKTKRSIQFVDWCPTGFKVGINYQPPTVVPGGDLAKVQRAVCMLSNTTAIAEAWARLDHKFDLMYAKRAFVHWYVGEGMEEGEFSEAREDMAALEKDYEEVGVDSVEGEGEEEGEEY
Description: Inhibition of Tubulin Polymerization.
Tubulin polymerization was evaluated in 0.25 mL reaction mixtures (final volume) containing 1 mg/mL (10 μM) purified bovine brain tubulin, 0.8 M monosodium glutamate (pH 6.6), 4% (v/v) dimethyl sulfoxide, 0.4 mM GTP, and different compound concentrations. All components except GTP were preincubated for 15 min at 30° C. in 0.24 mL. The assay mixtures were cooled to 0° C., and 10 μL of 0.01 M GTP was added to each sample. Reaction mixtures were transferred to cuvettes held at 0° C. in Beckman DU-7400 and DU-7500 spectrophotometers equipped with electronic temperature controllers. The temperature was increased to 30° C., over about 30 s, and polymerization was followed turbidimetrically at 350 nm for 20 min.

Row | SMILES | % Inhibition of colchicine binding ± SD (tubulin; compound at 1 μM) | GI50 [1] [µM] | GI50 [2] [µM] | GI50 [3] [µM] | IC50 [4] [µM] | % Inhibition of colchicine binding ± SD (tubulin; compound at 5 μM) | GI50 ([1]; Homo sapiens, SK-OV-3) [µM] | GI50 ([2]; Homo sapiens, NCI-H460) [µM] | GI50 ([3]; Homo sapiens, DU-145) [µM] | inhibition of tubulin polymerization (in words) [4]
1 | COc1ccc(/C=C\c2cc(OC)c(OC)c(OC)c2)cc1O [CA4, combretastatin A-4, reference compound] | 84 ± 3% | 0.00455 | 0.00223 | 0.00327 |  |  |  |  |  | 
2 | COc1ccc2c(c1C=O)CCCC=C2c1cc(OC)c(OC)c(OC)c1 [Compound 40, 3-Methoxy-9-(3,4,5-trimethoxyphenyl)-6,7-dihydro-5H-benzo[7]annulene-4-carbaldehyde] |  |  |  |  | 3.2 ± 0.08 | 61 ± 3 (5 μM) % | 0.0572 | 0.0847 | 0.0402 | 
3 | COc1cc(C2(O)C=CCCc3c2ccc(OC)c3OC)cc(OC)c1OC (stereo not drawn) [Compound 76, 1,2-Dimethoxy-5-(3,4,5-trimethoxyphenyl)-8,9-dihydro-5H-benzo[7]annulen-5-ol] |  |  |  |  | > 20 | 0 (5 μM) % | 27.2 | 70.5 | 26 | lack of tubulin activity
4 | COc1ccc2c(c1O)CCCC(=O)C2(O)c1cc(OC)c(OC)c(OC)c1 (stereo not drawn) [Compound 24, 1,5-Dihydroxy-2-methoxy-5-(3,4,5-trimethoxyphenyl)-5,7,8,9-tetrahydro-6H-benzo[7]annulen-6-one] |  |  |  |  | 1.2 ± 0.1 | 72 ± 2 (5 μM) % | 0.0314 | 0.0476 | 0.141 | 
5 | COc1cc(C2CCc3c(ccc(OC)c3OC)C(=O)C2)cc(OC)c1OC (stereo not drawn) [Compound 77, 1,2-Dimethoxy-7-(3,4,5-trimethoxyphenyl)-6,7,8,9-tetrahydro-5H-benzo[7]annulen-5-one] |  |  |  |  | > 20 | 0 (5 μM) % | 5.77 | 2 | 4.45 | lack of activity
6 | COc1ccc2c(c1OC)CCCC1=C2c2cc(OC)c(OC)c(OC)c2C1=O [Compound 93, 3,4,9,10,11-Pentamethoxy-6,7-dihydrodibenzo[a,h]azulen-8(5H)-one] |  |  |  |  | > 20 |  | 3.35 | 0.65 | 3.26 | 
7 | COc1cc(C2=CCCCc3c2ccc(OC)c3OCCO)cc(OC)c1OC [Compound 31, 2-((3-Methoxy-9-(3,4,5-trimethoxyphenyl)-6,7-dihydro-5H-benzo[7]annulen-4-yl)oxy)ethan-1-ol] |  |  |  |  | > 20 |  | 3.22 | 0.855 | 3.76 | loss of inhibitory activity
8 | COc1ccc2c(c1O)CCCC(Br)=C2c1cc(OC)c(OC)c(OC)c1 [Compound 33, 8-Bromo-3-methoxy-9-(3,4,5-trimethoxyphenyl)-6,7-dihydro-5H-benzo[7]annulen-4-ol] |  |  |  |  | 0.39 ± 0.06 | 88 ± 1 (5 μM) % | 0.0221 | 0.0353 | 0.0362 | 
9 | COc1ccc2c(c1C)CCCC(Br)=C2c1cc(OC)c(OC)c(OC)c1 [Compound 34, 8-Bromo-3-methoxy-4-methyl-9-(3,4,5-trimethoxyphenyl)-6,7-dihydro-5H-benzo[7]annulene] | 35 ± 5 (1 μM) % |  |  |  | 4.9 ± 0.1 |  | 0.312 | 0.449 | 0.423 | 
10 | COc1cccc2c1C(=O)c1c(O)c3c(c(O)c1C2=O)C[C@@](O)(C(=O)CO)C[C@@H]3O[C@H]1C[C@H](N)[C@H](O)[C@H](C)O1 [Doxorubicin, reference compound] |  |  |  |  |  |  | 0.0789 | 0.123 | 0.134 | 
11 | CCOC(=O)c1c(OC)ccc2c1CCCC=C2c1cc(OC)c(OC)c(OC)c1 [Compound 47, Ethyl 3-methoxy-9-(3,4,5-trimethoxyphenyl)-6,7-dihydro-5H-benzo[7]annulene-4-carboxylate] |  |  |  |  | 1 ± 0.07 | 47 ± 1 (5 μM) % | 0.299 | 0.353 | 0.631 | 
12 | COc1ccc2c(c1O)CCC(NC(C)=O)C=C2c1cc(OC)c(OC)c(OC)c1 (stereo not drawn) [Compound 69] |  |  |  |  |  | 0.4 ± 0.6 (5 μM) % |  | 0.334 | 1.2 | 
13 | COc1ccc2c(c1C#N)CCC=C2c1cc(OC)c(OC)c(OC)c1 [Compound 39, 2-Methoxy-5-(3,4,5-trimethoxyphenyl)-7,8-dihydronaphthalene-1-carbonitrile] |  | 0.0384 |  |  | 0.37 ± 0.08 | 73 ± 0.6 (5 μM) % |  | 0.0605 |  | 
14 | COc1ccc2c(c1O)CCCCC2(O)c1cc(OC)c(OC)c(OC)c1 (stereo not drawn) [Compound 23, 2-Methoxy-5-(3,4,5-trimethoxyphenyl)-6,7,8,9-tetrahydro-5H-benzo[7]annulene-1,5-diol] |  |  |  |  | > 20 |  | 0.394 | 0.173 | 0.033 | reduced inhibition of tubulin polymerization
15 | COCCOCCOc1c(OC)ccc2c1CCCC=C2c1cc(OC)c(OC)c(OC)c1 [Compound 28, 3-Methoxy-4-(2-(2-methoxyethoxy)ethoxy)-9-(3,4,5-trimethoxyphenyl)-6,7-dihydro-5H-benzo[7]annulene] |  |  |  |  | > 20 |  | 6.52 | 1.9 | 5.66 | loss of inhibitory activity
16 | COc1ccc2c(c1CO)CCCC=C2c1cc(OC)c(OC)c(OC)c1 [Compound 48, (3-Methoxy-9-(3,4,5-trimethoxyphenyl)-6,7-dihydro-5H-benzo[7]annulen-4-yl)methanol] |  |  |  |  | 0.63 ± 0.03 | 76 ± 2 (5 μM) % | 0.0403 | 0.0628 |  | 
17 | CC(=O)O[C@H]1C(=O)[C@@]2(C)[C@H]([C@H](OC(=O)c3ccccc3)[C@]3(O)C[C@H](OC(=O)[C@H](O)[C@@H](NC(=O)c4ccccc4)c4ccccc4)C(C)=C1C3(C)C)[C@]1(OC(C)=O)CO[C@@H]1C[C@@H]2O [Paclitaxel, paclitaxel, reference compound] |  |  |  |  |  |  | 0.00134 | 0.00176 | 0.00147 | 
18 | CCCCc1c(OC)ccc2c1CCCC=C2c1cc(OC)c(OC)c(OC)c1 [Compound 20, 4-Butyl-3-methoxy-9-(30,40,50-trimethoxyphenyl)-6,7-dihydro-5H-benzo[7]annulene] |  |  |  |  | > 20 |  | 11.5 | 16.1 | 12.2 | 
